Source: ChEMBL document CHEMBL1811886 (J Med Chem, 2011)
pIC50, pKi: −log10 of the molar value. Each block holds one compound with its values, some of them ahead of it.

Key:
Histamine H3 receptor [1] = target: Histamine H3 receptor (Rattus norvegicus, UniProt Q9QYN8); assay: Displacement of [3H]NAMH from rat histamine H3 receptor expressed in CHO cells; type: cell-based
[2] = Oral bioavailability in fasted Sprague-Dawley rat at 5 mg/kg after 6 hrs by LC-MS/MS analysis; type: ADME, organism-based; conditions: in vivo
Histamine H3 receptor [3] = target: Histamine H3 receptor (Homo sapiens, UniProt Q9Y5N1); assay: Displacement of [3H]NAMH from human histamine H3 receptor expressed in CHO cells; type: cell-based
[4] = Terminal half life in fasted Sprague-Dawley rat at 1 mg/kg, iv after 6 to 24 hrs by LC-MS/MS analysis; type: ADME, organism-based; set-up: dose 1 mg/kg, route intravenous; conditions: in vivo, read-out: beta t1/2 (converted)
[5] = Systemic clearance in fasted Sprague-Dawley rat at 1 mg/kg, iv after 6 to 24 hrs by LC-MS/MS analysis; type: ADME, organism-based; set-up: dose 1 mg/kg, route intravenous; conditions: in vivo
[6] = Ratio of drug uptake in brain to plasma of fasted Sprague-Dawley rat at 1 mg/kg, iv after 6 to 24 hrs by LC-MS/MS analysis; type: ADME, organism-based; set-up: dose 1 mg/kg, route intravenous; conditions: read-out: BPR
[7] = Metabolic stability of compound in mouse liver microsomes assessed as compound remaining at 40 mins; type: ADME, Microsome; conditions: read-out: Stability
Heart = assay: Clearance in Sprague-Dawley rat heart at 10 mg/kg, po administered as single dose after 24 hrs by LC-MS/MS analysis; type: ADME, organism-based; set-up: dose 10 mg/kg, route oral; conditions: in vivo
Spleen = assay: Clearance in Sprague-Dawley rat spleen at 10 mg/kg, po administered as single dose after 24 hrs by LC-MS/MS analysis; type: ADME, organism-based; set-up: dose 10 mg/kg, route oral; conditions: in vivo
[8] = Volume of distribution in Beagle dog at 1 mg/kg, iv after 6 to 24 hrs by LC-MS/MS analysis; type: ADME, organism-based, Canis lupus familiaris; set-up: dose 1 mg/kg, route intravenous; conditions: in vivo
[9] = Volume of distribution in cynomolgus monkey at 1 mg/kg, iv after 6 to 24 hrs by LC-MS/MS analysis; type: ADME, organism-based, Macaca fascicularis; set-up: dose 1 mg/kg, route intravenous; conditions: in vivo
[10] = AUC in cynomolgus monkey at 1 mg/kg, po after 6 to 24 hrs by LC-MS/MS analysis; type: ADME, organism-based, Macaca fascicularis; set-up: dose 1 mg/kg, route oral; conditions: plasma
[11] = Oral bioavailability in fasted Sprague-Dawley rat at 3 mg/kg, po after 6 to 24 hrs by LC-MS/MS analysis; type: ADME, organism-based; conditions: in vivo
Canis familiaris = assay: Cmax in Beagle dog at 3 mg/kg, po after 6 to 24 hrs by LC-MS/MS analysis; type: ADME, organism-based, Canis lupus familiaris; set-up: dose 3 mg/kg, route oral; conditions: in vivo
[12] = Oral bioavailability in Beagle dog at 3 mg/kg after 6 to 24 hrs by LC-MS/MS analysis; type: ADME, organism-based, Canis lupus familiaris; conditions: in vivo
Cytochrome P450 2D6 = Cytochrome P450 2D6 (Homo sapiens, UniProt P10635); assay: Inhibition of CYP2D6; type: ADME
[13] = Plasma protein binding in human after 1 hr by LC/MS/MS analysis; type: ADME, cell-free; conditions: read-out: PPB (converted)
[14] = AUC in Beagle dog at 3 mg/kg, po after 6 to 24 hrs by LC-MS/MS analysis; type: ADME, organism-based, Canis lupus familiaris; set-up: dose 3 mg/kg, route oral; conditions: plasma
Brain = assay: Clearance in Sprague-Dawley rat brain at 10 mg/kg, po administered as single dose after 24 hrs by LC-MS/MS analysis; type: ADME, organism-based; set-up: dose 10 mg/kg, route oral; conditions: in vivo
[15] = Plasma protein binding in Beagle dog after 1 hr by LC/MS/MS analysis; type: ADME, cell-free, Canis lupus familiaris; conditions: read-out: PPB (converted)
[16] = AUC in fasted Sprague-Dawley rat at 3 mg/kg, po after 6 to 24 hrs by LC-MS/MS analysis; type: ADME, organism-based; set-up: dose 3 mg/kg, route oral; conditions: plasma
[17] = Fraction unbound in rat brain; type: ADME, tissue-based
[18] = Terminal half life in cynomolgus monkey at 1 mg/kg, iv after 6 to 24 hrs by LC-MS/MS analysis; type: ADME, organism-based, Macaca fascicularis; set-up: dose 1 mg/kg, route intravenous; conditions: in vivo, read-out: beta t1/2 (converted)
Cytochrome P450 3A4 = Cytochrome P450 3A4 (Homo sapiens, UniProt P08684); assay: Inhibition of CYP3A4; type: ADME
[19] = Cmax in cynomolgus monkey at 1 mg/kg, po after 6 to 24 hrs by LC-MS/MS analysis; type: ADME, organism-based, Macaca fascicularis; set-up: dose 1 mg/kg, route oral; conditions: in vivo
[20] = Metabolic stability of compound in rat liver microsomes assessed as compound remaining at 40 mins; type: ADME, Microsome; conditions: read-out: Stability
[21] = Metabolic stability of compound in mouse liver microsomes assessed as half life; type: ADME, Microsome
[22] = Clearance in cynomolgus monkey at 1 mg/kg, iv after 6 to 24 hrs by LC-MS/MS analysis; type: ADME, organism-based, Macaca fascicularis; set-up: dose 1 mg/kg, route intravenous; conditions: in vivo
[23] = Oral bioavailability in cynomolgus monkey at 1 mg/kg after 6 to 24 hrs by LC-MS/MS analysis; type: ADME, organism-based, Macaca fascicularis; conditions: in vivo
[24] = Volume of distribution in fasted Sprague-Dawley rat at 1 mg/kg, iv after 6 to 24 hrs by LC-MS/MS analysis; type: ADME, organism-based; set-up: dose 1 mg/kg, route intravenous; conditions: in vivo
[25] = Terminal half life in fasted Sprague-Dawley rat at 3 mg/kg, po after 6 to 24 hrs by LC-MS/MS analysis; type: ADME, organism-based; set-up: dose 3 mg/kg, route oral; conditions: in vivo, read-out: beta t1/2 (converted)
[26] = Ratio of drug uptake in brain to plasma of Beagle dog at 5 mg/kg, po after 6 to 24 hrs by LC-MS/MS analysis; type: ADME, organism-based, Canis lupus familiaris; set-up: dose 5 mg/kg, route oral; conditions: read-out: BPR
[27] = Metabolic stability of compound in dog liver microsomes assessed as compound remaining at 40 mins; type: ADME, Canis lupus familiaris, Microsome; conditions: read-out: Stability
[28] = Clearance in Beagle dog at 1 mg/kg, iv after 6 to 24 hrs by LC-MS/MS analysis; type: ADME, organism-based, Canis lupus familiaris; set-up: dose 1 mg/kg, route intravenous; conditions: in vivo
[29] = Metabolic stability of compound in human liver microsomes assessed as half life; type: ADME, Microsome
Cytochrome P450 1A2 = Cytochrome P450 1A2 (Homo sapiens, UniProt P05177); assay: Inhibition of CYP1A2; type: ADME
Cytochrome P450 2C9 = Cytochrome P450 2C9 (Homo sapiens, UniProt P11712); assay: Inhibition of CYP2C9; type: ADME
[30] = Metabolic stability of compound in dog liver microsomes assessed as half life; type: ADME, Canis lupus familiaris, Microsome
[31] = Terminal half life in Beagle dog at 1 mg/kg, iv after 6 to 24 hrs by LC-MS/MS analysis; type: ADME, organism-based, Canis lupus familiaris; set-up: dose 1 mg/kg, route intravenous; conditions: in vivo, read-out: beta t1/2 (converted)
[32] = Plasma protein binding in rat after 1 hr by LC/MS/MS analysis; type: ADME, cell-free; conditions: read-out: PPB (converted)
[33] = Terminal half life in cynomolgus monkey at 1 mg/kg, po after 6 to 24 hrs by LC-MS/MS analysis; type: ADME, organism-based, Macaca fascicularis; set-up: dose 1 mg/kg, route oral; conditions: in vivo, read-out: beta t1/2 (converted)
[34] = Terminal half life in Beagle dog at 3 mg/kg, po after 6 to 24 hrs by LC-MS/MS analysis; type: ADME, organism-based, Canis lupus familiaris; set-up: dose 3 mg/kg, route oral; conditions: in vivo, read-out: beta t1/2 (converted)
Liver = assay: Clearance in Sprague-Dawley rat liver at 10 mg/kg, po administered as single dose after 24 hrs by LC-MS/MS analysis; type: ADME, organism-based; set-up: dose 10 mg/kg, route oral; conditions: in vivo
[35] = Cmax in fasted Sprague-Dawley rat at 3 mg/kg, po after 6 to 24 hrs by LC-MS/MS analysis; type: ADME, organism-based; set-up: dose 3 mg/kg, route oral; conditions: in vivo
[36] = Metabolic stability of compound in human liver microsomes assessed as compound remaining at 40 mins; type: ADME, Microsome; conditions: read-out: Stability
Kidney = assay: Clearance in Sprague-Dawley rat kidney at 10 mg/kg, po administered as single dose after 24 hrs by LC-MS/MS analysis; type: ADME, organism-based; set-up: dose 10 mg/kg, route oral; conditions: in vivo
[37] = Metabolic stability of compound in rat liver microsomes assessed as half life; type: ADME, Microsome
Cytochrome P450 2C19 = Cytochrome P450 2C19 (Homo sapiens, UniProt P33261); assay: Inhibition of CYP2C19; type: ADME
Lung = assay: Clearance in Sprague-Dawley rat lung at 10 mg/kg, po administered as single dose after 24 hrs by LC-MS/MS analysis; type: ADME, organism-based; set-up: dose 10 mg/kg, route oral; conditions: in vivo
Plasma = assay: Clearance in Sprague-Dawley rat plasma at 10 mg/kg, po administered as single dose after 24 hrs by LC-MS/MS analysis; type: ADME, organism-based; set-up: dose 10 mg/kg, route oral; conditions: in vivo

Chain of Histamine H3 receptor (Homo sapiens, UniProt Q9Y5N1) (Q9Y5N1 whole entry): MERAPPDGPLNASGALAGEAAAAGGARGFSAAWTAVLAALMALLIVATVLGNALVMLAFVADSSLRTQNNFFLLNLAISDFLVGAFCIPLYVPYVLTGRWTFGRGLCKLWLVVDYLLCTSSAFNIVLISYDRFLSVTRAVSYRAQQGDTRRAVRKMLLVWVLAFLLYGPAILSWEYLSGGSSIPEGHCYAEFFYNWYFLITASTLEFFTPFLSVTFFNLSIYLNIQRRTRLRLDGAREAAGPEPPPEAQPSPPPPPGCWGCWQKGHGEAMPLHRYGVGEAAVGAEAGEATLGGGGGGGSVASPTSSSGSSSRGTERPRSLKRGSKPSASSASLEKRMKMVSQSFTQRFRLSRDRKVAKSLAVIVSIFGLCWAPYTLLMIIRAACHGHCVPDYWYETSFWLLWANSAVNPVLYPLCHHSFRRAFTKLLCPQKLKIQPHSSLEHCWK
Chain of Histamine H3 receptor (Rattus norvegicus, UniProt Q9QYN8) (Q9QYN8 whole entry): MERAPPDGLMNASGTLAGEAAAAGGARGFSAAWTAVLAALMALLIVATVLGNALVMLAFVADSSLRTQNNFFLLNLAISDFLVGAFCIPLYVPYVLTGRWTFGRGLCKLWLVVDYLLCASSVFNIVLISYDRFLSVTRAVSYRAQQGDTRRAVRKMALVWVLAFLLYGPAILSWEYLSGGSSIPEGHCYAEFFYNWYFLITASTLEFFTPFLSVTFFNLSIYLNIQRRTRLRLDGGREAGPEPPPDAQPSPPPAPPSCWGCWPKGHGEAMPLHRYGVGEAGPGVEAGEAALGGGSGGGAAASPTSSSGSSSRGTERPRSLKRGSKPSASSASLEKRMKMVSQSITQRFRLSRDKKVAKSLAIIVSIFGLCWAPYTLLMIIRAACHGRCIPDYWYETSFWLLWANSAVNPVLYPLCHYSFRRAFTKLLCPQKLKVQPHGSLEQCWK
Chain of Cytochrome P450 2C9 (P11712 whole entry): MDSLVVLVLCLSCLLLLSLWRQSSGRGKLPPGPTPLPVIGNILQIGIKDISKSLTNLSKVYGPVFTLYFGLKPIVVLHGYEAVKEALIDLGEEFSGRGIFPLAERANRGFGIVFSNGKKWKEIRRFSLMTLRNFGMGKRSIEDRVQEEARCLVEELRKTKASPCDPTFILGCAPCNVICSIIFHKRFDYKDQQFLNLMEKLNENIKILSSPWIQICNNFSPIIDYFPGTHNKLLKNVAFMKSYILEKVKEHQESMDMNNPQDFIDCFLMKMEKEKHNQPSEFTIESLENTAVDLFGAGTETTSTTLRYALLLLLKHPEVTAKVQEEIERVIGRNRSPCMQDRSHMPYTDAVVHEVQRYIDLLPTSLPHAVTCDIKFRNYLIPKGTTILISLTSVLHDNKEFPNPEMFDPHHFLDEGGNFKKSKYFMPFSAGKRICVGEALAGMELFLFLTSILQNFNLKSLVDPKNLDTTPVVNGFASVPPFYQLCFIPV
Chain of Cytochrome P450 2D6 (P10635 whole entry): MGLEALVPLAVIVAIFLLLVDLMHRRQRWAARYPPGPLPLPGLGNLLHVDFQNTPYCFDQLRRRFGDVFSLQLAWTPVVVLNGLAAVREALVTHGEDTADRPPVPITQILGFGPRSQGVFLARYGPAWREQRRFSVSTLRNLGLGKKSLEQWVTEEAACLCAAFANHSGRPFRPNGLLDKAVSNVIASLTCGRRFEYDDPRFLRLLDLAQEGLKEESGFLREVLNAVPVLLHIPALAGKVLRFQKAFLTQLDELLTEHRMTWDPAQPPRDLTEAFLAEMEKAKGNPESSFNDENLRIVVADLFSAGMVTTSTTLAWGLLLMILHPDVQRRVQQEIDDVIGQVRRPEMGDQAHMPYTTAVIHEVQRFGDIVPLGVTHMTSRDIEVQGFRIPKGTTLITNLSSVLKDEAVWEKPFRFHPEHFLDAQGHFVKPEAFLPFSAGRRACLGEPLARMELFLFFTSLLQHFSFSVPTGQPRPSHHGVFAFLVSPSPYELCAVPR
Chain of Cytochrome P450 3A4 (P08684 whole entry): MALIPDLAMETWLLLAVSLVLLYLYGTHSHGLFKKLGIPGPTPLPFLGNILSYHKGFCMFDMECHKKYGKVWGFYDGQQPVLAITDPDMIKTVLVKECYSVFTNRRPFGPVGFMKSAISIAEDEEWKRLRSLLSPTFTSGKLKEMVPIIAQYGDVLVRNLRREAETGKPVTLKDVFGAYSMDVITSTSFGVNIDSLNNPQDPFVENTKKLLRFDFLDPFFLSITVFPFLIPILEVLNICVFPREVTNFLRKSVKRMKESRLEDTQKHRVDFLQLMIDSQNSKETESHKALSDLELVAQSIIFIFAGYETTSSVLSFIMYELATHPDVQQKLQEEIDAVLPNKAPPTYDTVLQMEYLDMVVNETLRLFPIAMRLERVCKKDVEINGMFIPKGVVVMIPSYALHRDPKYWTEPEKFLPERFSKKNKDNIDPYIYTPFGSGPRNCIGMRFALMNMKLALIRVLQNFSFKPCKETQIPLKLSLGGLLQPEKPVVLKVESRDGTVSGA
Chain of Cytochrome P450 2C19 (P33261 whole entry): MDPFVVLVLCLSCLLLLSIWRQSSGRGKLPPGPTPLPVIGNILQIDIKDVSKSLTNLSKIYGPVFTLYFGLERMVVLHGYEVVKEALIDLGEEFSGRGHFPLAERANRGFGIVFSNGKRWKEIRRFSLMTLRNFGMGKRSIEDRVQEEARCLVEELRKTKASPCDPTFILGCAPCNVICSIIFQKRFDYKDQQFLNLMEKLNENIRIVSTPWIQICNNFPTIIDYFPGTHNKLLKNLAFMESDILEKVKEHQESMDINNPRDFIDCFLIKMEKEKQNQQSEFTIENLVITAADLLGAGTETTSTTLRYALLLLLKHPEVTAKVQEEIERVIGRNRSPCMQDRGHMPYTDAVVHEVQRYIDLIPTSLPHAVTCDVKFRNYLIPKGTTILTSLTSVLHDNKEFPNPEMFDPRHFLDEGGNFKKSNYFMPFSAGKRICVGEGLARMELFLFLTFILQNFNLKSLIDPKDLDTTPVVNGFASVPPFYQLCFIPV
Chain of Cytochrome P450 1A2 (P05177 whole entry): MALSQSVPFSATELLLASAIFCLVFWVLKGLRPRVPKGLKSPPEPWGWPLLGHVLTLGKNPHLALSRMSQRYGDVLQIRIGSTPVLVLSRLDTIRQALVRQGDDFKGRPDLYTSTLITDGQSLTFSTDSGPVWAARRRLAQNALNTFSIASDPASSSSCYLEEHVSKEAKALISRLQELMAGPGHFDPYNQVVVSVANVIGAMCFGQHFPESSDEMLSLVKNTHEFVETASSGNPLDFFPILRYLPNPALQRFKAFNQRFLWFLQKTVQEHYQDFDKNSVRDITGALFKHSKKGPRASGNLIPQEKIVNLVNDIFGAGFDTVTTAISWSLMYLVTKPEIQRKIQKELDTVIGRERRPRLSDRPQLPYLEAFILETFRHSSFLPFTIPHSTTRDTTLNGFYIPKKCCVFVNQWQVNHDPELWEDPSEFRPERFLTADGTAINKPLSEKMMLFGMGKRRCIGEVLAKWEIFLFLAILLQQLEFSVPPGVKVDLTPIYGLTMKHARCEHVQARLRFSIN

pKi (Histamine H3 receptor [1]): 8.12
bioavailability [2]: 5%
pKi (Histamine H3 receptor [3]): 8.32
half-life [4]: 0.3 h
clearance [5]: 258 mL/min/kg
Kp [6]: 2.1
Structure (SMILES): CC(C)n1nc(-c2ccc(OCCCN3CCC[C@H]3C)cc2)ccc1=O

pKi (Histamine H3 receptor [1]): 7.30
bioavailability [2]: 25%
pKi (Histamine H3 receptor [3]): 7.80
half-life [4]: 1.6 h
clearance [5]: 14.5 mL/min/kg
Kp [6]: 3.1
Structure (SMILES): C[C@H]1CCCN1CCCOc1ccc(-c2ccc(=O)[nH]n2)cc1

pKi (Histamine H3 receptor [1]): 7.92
bioavailability [2]: < 1%
pKi (Histamine H3 receptor [3]): 8.16
half-life [4]: 0.7 h
clearance [5]: 46 mL/min/kg
Kp [6]: 3.8
Structure (SMILES): C[C@@H]1CCCN1CCCOc1ccc(-c2ccc(=O)n(Cc3ccccc3)n2)cc1

remaining at 40 min [7]: > 98%
CL (Heart): > 98%
CL (Spleen): > 98%
Vd [8]: 3.5 L/kg
Vd [9]: 3.8 L/kg
AUC [10]: 1920 ng·h/mL
bioavailability [11]: 83%
Cmax (Canis familiaris): 230 ng/mL
bioavailability [12]: 22%
pIC50 (Cytochrome P450 2D6): < 4.52
fraction unbound at 1 h [13]: 0.56
AUC [14]: 1190 ng·h/mL
CL (Brain): > 98%
fraction unbound at 1 h [15]: 0.68
AUC [16]: 984 ng·h/mL
fraction unbound [17]: 0.4
half-life [18]: 5.4 h
pIC50 (Cytochrome P450 3A4): < 4.52
Cmax [19]: 760 ng/mL
remaining at 40 min [20]: > 98%
half-life [21]: > 0.667 h
clearance [22]: 7.7 mL/min/kg
bioavailability [23]: 83%
Vd [24]: 9.4 L/kg
half-life [25]: 2.9 h
Kp [26]: 2.4
remaining at 40 min [27]: > 98%
clearance [28]: 13.2 mL/min/kg
half-life [29]: > 0.667 h
pIC50 (Cytochrome P450 1A2): < 4.52
pIC50 (Cytochrome P450 2C9): < 4.52
half-life [30]: > 0.667 h
half-life [31]: 2.9 h
fraction unbound at 1 h [32]: 0.61
half-life [33]: 5 h
half-life [34]: 2.7 h
CL (Liver): > 98%
half-life [4]: 2.6 h
clearance [5]: 42 mL/min/kg
Cmax [35]: 270 ng/mL
remaining at 40 min [36]: > 98%
CL (Kidney): > 98%
half-life [37]: > 0.667 h
pIC50 (Cytochrome P450 2C19): < 4.52
CL (Lung): > 98%
Kp [6]: 2.6
CL (Plasma): > 98%
Structure (SMILES): C[C@@H]1CCCN1CCCOc1ccc(-c2ccc(=O)[nH]n2)cc1.Cl [IRDABISANT HYDROCHLORIDE]
